Source: US20260102379A1, “Inhibitor of PFKFB2 Kinase Activity and Cellular Glycolysis” (Oklahoma Medical Research Foundation, priority 2024, published 2026)

Target: T1, PFKFB3 (Homo sapiens, UniProt Q16875)
T1 construct: GST (cleaved yes); host or cells: Rosetta cells (bacteria)
Assay: PFK-2 kinase activity assay (coupled PPi-PFK assay), recombinant PFKFB3
Type: biochemical
Details: recombinant PFKFB3, concentration course
Procedure: Recombinant Protein Expression: PFKFB2, PFKFB1, and PFKFB3 constructs (Origene) were subcloned into GST expression vector. Mutation of PFKFB2 at K174 to G [3], H259 to A [4], and the double mutant were created using Quickchange methodology. All constructs were transformed into Rosetta cells (Milipore), expressed and induced following standard protocol. Bacteria were harvested via centrifugation and pellets resuspended in 10 mL sonication buffer (50 mM TrisHCl pH 7.5, 10% glycerol, 150 mM NaCl, 10 mM Imidazole, 10 uL 1M DTT, and 1 protease inhibitor tablet). Cells were sonicated (power lvl 5, 45 s, 4×, QSonica) at 4° C. and spun 10 krpm for 10 min at 4° C. to collect protein lysate. […] Protein concentration was determined by Nanodrop (Thermo).
The resultant F-2,6-BP levels were determined by pyrophosphate-fructose-6-phosphate phosphotransferase (PPi-PFK) activity. After the preincubation phase, the F-2,6-BP/PFK2 mixture was diluted 10× by 50 mM pH 8.0 Tris assay buffer, supplemented with 5 mM Mg^2+, 0.5 mM PPi and 1 mM F-6-P. The PPi-PFK activity was measured as the rate of NADH oxidation (ε340=6200 M^−1 cm^−1) following the addition of 150 μM NADH to a mixture of excess PPi-PFK, 0.1 μg/mL triosephosphate isomerase, 10 μg/mL glycerol-3-phosphate dehydrogenase, and 0.01 U/mL aldolase. […]

T1 sequence (Q16875 whole entry, species assumed): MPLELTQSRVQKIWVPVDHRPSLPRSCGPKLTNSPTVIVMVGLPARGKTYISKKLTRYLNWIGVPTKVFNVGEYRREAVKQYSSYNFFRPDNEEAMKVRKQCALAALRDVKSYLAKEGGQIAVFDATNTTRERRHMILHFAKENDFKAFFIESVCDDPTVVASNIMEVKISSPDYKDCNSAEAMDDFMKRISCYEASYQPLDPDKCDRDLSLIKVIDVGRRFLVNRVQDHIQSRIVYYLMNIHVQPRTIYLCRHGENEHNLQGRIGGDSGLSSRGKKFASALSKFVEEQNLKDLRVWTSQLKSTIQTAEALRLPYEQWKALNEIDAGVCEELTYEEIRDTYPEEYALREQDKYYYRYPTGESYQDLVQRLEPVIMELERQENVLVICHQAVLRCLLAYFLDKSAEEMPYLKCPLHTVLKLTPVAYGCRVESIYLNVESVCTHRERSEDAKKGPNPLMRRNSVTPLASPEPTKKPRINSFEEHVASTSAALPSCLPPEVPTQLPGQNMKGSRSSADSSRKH

## COc1ccccc1Nc1nnc(S)s1 [B2, 5-[(2-methoxyphenyl)amino]-1,3,4-thiadiazole-2-thiol]
  IC50: 11.9 µM

## O=C(/C=C/c1ccc2ccc(C(F)(F)F)cc2n1)c1ccncc1 [PFK158]
  IC50: 8.94 µM
